Results as given in the supplement of paper PMC12420376.
± gives the uncertainty stated by the source.

System: OVCAR8
Assay: cancer cell viability relative to untreated control; higher = less cytotoxic
Conditions: 72 h
Experimental: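 KURAMOCHI or OVCAR8 cells were grown in monoculture or in co-culture with WI38 or patient-derived 030F fibroblasts and treated for 72 h with a dose matrix of carboplatin combined with birinapant or vorinostat (doses in nM). Cancer cell viability was measured by CK8/18 immunofluorescence imaging and expressed as % of untreated control, given as mean with SD.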

O=C(O)C1(C(=O)O)CCC1.[NH2-].[NH2-].[Pt+2] [Carboplatin] + CC[C@H](NC(=O)[C@H](C)NC)C(=O)N1C[C@@H](O)C[C@H]1Cc1c(-c2[nH]c3cc(F)ccc3c2C[C@@H]2C[C@H](O)CN2C(=O)[C@H](CC)NC(=O)[C@H](C)NC)[nH]c2cc(F)ccc12 [Birinapant]
cancer cell viability (carboplatin concentration 10 nM, partner drug concentration 0 nM, co-cultured fibroblast: 030F): 95.9 ± 6% | cancer cell viability (carboplatin concentration 10 nM, partner drug concentration 0 nM, co-cultured fibroblast: WI38): 112 ± 7.4% | cancer cell viability (carboplatin concentration 10 nM, partner drug concentration 0 nM, co-cultured fibroblast: none (monoculture)): 100 ± 1.8% | cancer cell viability (carboplatin concentration 10 nM, partner drug concentration 0.1 nM, co-cultured fibroblast: 030F): 93.4 ± 11% | cancer cell viability (carboplatin concentration 10 nM, partner drug concentration 0.1 nM, co-cultured fibroblast: WI38): 112 ± 13% | cancer cell viability (carboplatin concentration 10 nM, partner drug concentration 0.1 nM, co-cultured fibroblast: none (monoculture)): 107 ± 8% | cancer cell viability (carboplatin concentration 10 nM, partner drug concentration 1 nM, co-cultured fibroblast: 030F): 86.9 ± 9.3% | cancer cell viability (carboplatin concentration 10 nM, partner drug concentration 1 nM, co-cultured fibroblast: WI38): 98.5 ± 3.4% | cancer cell viability (carboplatin concentration 10 nM, partner drug concentration 1 nM, co-cultured fibroblast: none (monoculture)): 102 ± 5.6% | cancer cell viability (carboplatin concentration 10 nM, partner drug concentration 10 nM, co-cultured fibroblast: 030F): 85.6 ± 9.1% | cancer cell viability (carboplatin concentration 10 nM, partner drug concentration 10 nM, co-cultured fibroblast: WI38): 99.2 ± 10% | cancer cell viability (carboplatin concentration 10 nM, partner drug concentration 10 nM, co-cultured fibroblast: none (monoculture)): 96.1 ± 3.5% | cancer cell viability (carboplatin concentration 10 nM, partner drug concentration 100 nM, co-cultured fibroblast: 030F): 53.2 ± 16% | cancer cell viability (carboplatin concentration 10 nM, partner drug concentration 100 nM, co-cultured fibroblast: WI38): 59.9 ± 7.1% | cancer cell viability (carboplatin concentration 10 nM, partner drug concentration 100 nM, co-cultured fibroblast: none (monoculture)): 68.1 ± 14% | cancer cell viability (carboplatin concentration 10 nM, partner drug concentration 1000 nM, co-cultured fibroblast: 030F): 11.3 ± 6.2% | cancer cell viability (carboplatin concentration 10 nM, partner drug concentration 1000 nM, co-cultured fibroblast: WI38): 9.28 ± 2.3% | cancer cell viability (carboplatin concentration 10 nM, partner drug concentration 1000 nM, co-cultured fibroblast: none (monoculture)): 14.5 ± 8.1% | cancer cell viability (carboplatin concentration 100 nM, partner drug concentration 0 nM, co-cultured fibroblast: 030F): 97.7 ± 8.1% | cancer cell viability (carboplatin concentration 100 nM, partner drug concentration 0 nM, co-cultured fibroblast: WI38): 103 ± 7.5% | cancer cell viability (carboplatin concentration 100 nM, partner drug concentration 0 nM, co-cultured fibroblast: none (monoculture)): 101 ± 7.5% | cancer cell viability (carboplatin concentration 100 nM, partner drug concentration 0.1 nM, co-cultured fibroblast: 030F): 89.9 ± 7.7% | cancer cell viability (carboplatin concentration 100 nM, partner drug concentration 0.1 nM, co-cultured fibroblast: WI38): 101 ± 12% | cancer cell viability (carboplatin concentration 100 nM, partner drug concentration 0.1 nM, co-cultured fibroblast: none (monoculture)): 99.5 ± 7.3% | cancer cell viability (carboplatin concentration 100 nM, partner drug concentration 1 nM, co-cultured fibroblast: 030F): 85.8 ± 6.7% | cancer cell viability (carboplatin concentration 100 nM, partner drug concentration 1 nM, co-cultured fibroblast: WI38): 102 ± 8.9% | cancer cell viability (carboplatin concentration 100 nM, partner drug concentration 1 nM, co-cultured fibroblast: none (monoculture)): 101 ± 7% | cancer cell viability (carboplatin concentration 100 nM, partner drug concentration 10 nM, co-cultured fibroblast: 030F): 92.3 ± 9.8% | cancer cell viability (carboplatin concentration 100 nM, partner drug concentration 10 nM, co-cultured fibroblast: WI38): 98.1 ± 9.8% | cancer cell viability (carboplatin concentration 100 nM, partner drug concentration 10 nM, co-cultured fibroblast: none (monoculture)): 103 ± 5.2% | cancer cell viability (carboplatin concentration 100 nM, partner drug concentration 100 nM, co-cultured fibroblast: 030F): 46 ± 6% | cancer cell viability (carboplatin concentration 100 nM, partner drug concentration 100 nM, co-cultured fibroblast: WI38): 52.4 ± 6.4% | cancer cell viability (carboplatin concentration 100 nM, partner drug concentration 100 nM, co-cultured fibroblast: none (monoculture)): 71.7 ± 5.3% | cancer cell viability (carboplatin concentration 100 nM, partner drug concentration 1000 nM, co-cultured fibroblast: 030F): 12.3 ± 5.1% | cancer cell viability (carboplatin concentration 100 nM, partner drug concentration 1000 nM, co-cultured fibroblast: WI38): 10.8 ± 3.5% | cancer cell viability (carboplatin concentration 100 nM, partner drug concentration 1000 nM, co-cultured fibroblast: none (monoculture)): 13.4 ± 9.3% | cancer cell viability (carboplatin concentration 1000 nM, partner drug concentration 0 nM, co-cultured fibroblast: 030F): 96.9 ± 6% | cancer cell viability (carboplatin concentration 1000 nM, partner drug concentration 0 nM, co-cultured fibroblast: WI38): 107 ± 7.5% | cancer cell viability (carboplatin concentration 1000 nM, partner drug concentration 0 nM, co-cultured fibroblast: none (monoculture)): 101 ± 4.5% | cancer cell viability (carboplatin concentration 1000 nM, partner drug concentration 0.1 nM, co-cultured fibroblast: 030F): 83.5 ± 11% | cancer cell viability (carboplatin concentration 1000 nM, partner drug concentration 0.1 nM, co-cultured fibroblast: WI38): 98.1 ± 5.2% | cancer cell viability (carboplatin concentration 1000 nM, partner drug concentration 0.1 nM, co-cultured fibroblast: none (monoculture)): 102 ± 5.5% | cancer cell viability (carboplatin concentration 1000 nM, partner drug concentration 1 nM, co-cultured fibroblast: 030F): 90.8 ± 12% | cancer cell viability (carboplatin concentration 1000 nM, partner drug concentration 1 nM, co-cultured fibroblast: WI38): 104 ± 12% | cancer cell viability (carboplatin concentration 1000 nM, partner drug concentration 1 nM, co-cultured fibroblast: none (monoculture)): 98.6 ± 7.6% | cancer cell viability (carboplatin concentration 1000 nM, partner drug concentration 10 nM, co-cultured fibroblast: 030F): 96.9 ± 5.5% | cancer cell viability (carboplatin concentration 1000 nM, partner drug concentration 10 nM, co-cultured fibroblast: WI38): 92.6 ± 10% | cancer cell viability (carboplatin concentration 1000 nM, partner drug concentration 10 nM, co-cultured fibroblast: none (monoculture)): 105 ± 6.2% | cancer cell viability (carboplatin concentration 1000 nM, partner drug concentration 100 nM, co-cultured fibroblast: 030F): 50.5 ± 11% | cancer cell viability (carboplatin concentration 1000 nM, partner drug concentration 100 nM, co-cultured fibroblast: WI38): 56.6 ± 7.3% | cancer cell viability (carboplatin concentration 1000 nM, partner drug concentration 100 nM, co-cultured fibroblast: none (monoculture)): 79.7 ± 8.2% | cancer cell viability (carboplatin concentration 1000 nM, partner drug concentration 1000 nM, co-cultured fibroblast: 030F): 14.7 ± 9.6% | cancer cell viability (carboplatin concentration 1000 nM, partner drug concentration 1000 nM, co-cultured fibroblast: WI38): 9.2 ± 1.6% | cancer cell viability (carboplatin concentration 1000 nM, partner drug concentration 1000 nM, co-cultured fibroblast: none (monoculture)): 16.3 ± 9.5% | cancer cell viability (carboplatin concentration 10000 nM, partner drug concentration 0 nM, co-cultured fibroblast: 030F): 52.3 ± 8.9% | cancer cell viability (carboplatin concentration 10000 nM, partner drug concentration 0 nM, co-cultured fibroblast: WI38): 41.6 ± 4.1% | cancer cell viability (carboplatin concentration 10000 nM, partner drug concentration 0 nM, co-cultured fibroblast: none (monoculture)): 56.5 ± 10% | cancer cell viability (carboplatin concentration 10000 nM, partner drug concentration 0.1 nM, co-cultured fibroblast: 030F): 72.4 ± 19% | cancer cell viability (carboplatin concentration 10000 nM, partner drug concentration 0.1 nM, co-cultured fibroblast: WI38): 82.3 ± 7.9% | cancer cell viability (carboplatin concentration 10000 nM, partner drug concentration 0.1 nM, co-cultured fibroblast: none (monoculture)): 90.3 ± 5.2% | cancer cell viability (carboplatin concentration 10000 nM, partner drug concentration 1 nM, co-cultured fibroblast: 030F): 90.8 ± 33% | cancer cell viability (carboplatin concentration 10000 nM, partner drug concentration 1 nM, co-cultured fibroblast: WI38): 89.1 ± 11% | cancer cell viability (carboplatin concentration 10000 nM, partner drug concentration 1 nM, co-cultured fibroblast: none (monoculture)): 92.5 ± 12% | cancer cell viability (carboplatin concentration 10000 nM, partner drug concentration 10 nM, co-cultured fibroblast: 030F): 85.1 ± 10% | cancer cell viability (carboplatin concentration 10000 nM, partner drug concentration 10 nM, co-cultured fibroblast: WI38): 95.9 ± 9.6% | cancer cell viability (carboplatin concentration 10000 nM, partner drug concentration 10 nM, co-cultured fibroblast: none (monoculture)): 100 ± 5.6% | cancer cell viability (carboplatin concentration 10000 nM, partner drug concentration 100 nM, co-cultured fibroblast: 030F): 34.3 ± 8.1% | cancer cell viability (carboplatin concentration 10000 nM, partner drug concentration 100 nM, co-cultured fibroblast: WI38): 49.7 ± 9.4% | cancer cell viability (carboplatin concentration 10000 nM, partner drug concentration 100 nM, co-cultured fibroblast: none (monoculture)): 64.8 ± 13% | cancer cell viability (carboplatin concentration 10000 nM, partner drug concentration 1000 nM, co-cultured fibroblast: 030F): 9.13 ± 6.5% | cancer cell viability (carboplatin concentration 10000 nM, partner drug concentration 1000 nM, co-cultured fibroblast: WI38): 7.2 ± 2.6% | cancer cell viability (carboplatin concentration 10000 nM, partner drug concentration 1000 nM, co-cultured fibroblast: none (monoculture)): 12.6 ± 10% | cancer cell viability (carboplatin concentration 1e+05 nM, partner drug concentration 0 nM, co-cultured fibroblast: 030F): 23.2 ± 13% | cancer cell viability (carboplatin concentration 1e+05 nM, partner drug concentration 0 nM, co-cultured fibroblast: WI38): 10.6 ± 4.3% | cancer cell viability (carboplatin concentration 1e+05 nM, partner drug concentration 0 nM, co-cultured fibroblast: none (monoculture)): 23.1 ± 5.3% | cancer cell viability (carboplatin concentration 1e+05 nM, partner drug concentration 0.1 nM, co-cultured fibroblast: 030F): 34.9 ± 13% | cancer cell viability (carboplatin concentration 1e+05 nM, partner drug concentration 0.1 nM, co-cultured fibroblast: WI38): 36.2 ± 5.2% | cancer cell viability (carboplatin concentration 1e+05 nM, partner drug concentration 0.1 nM, co-cultured fibroblast: none (monoculture)): 61 ± 11% | cancer cell viability (carboplatin concentration 1e+05 nM, partner drug concentration 1 nM, co-cultured fibroblast: 030F): 41.2 ± 21% | cancer cell viability (carboplatin concentration 1e+05 nM, partner drug concentration 1 nM, co-cultured fibroblast: WI38): 51.3 ± 13% | cancer cell viability (carboplatin concentration 1e+05 nM, partner drug concentration 1 nM, co-cultured fibroblast: none (monoculture)): 58.4 ± 9.8% | cancer cell viability (carboplatin concentration 1e+05 nM, partner drug concentration 10 nM, co-cultured fibroblast: 030F): 34.2 ± 16% | cancer cell viability (carboplatin concentration 1e+05 nM, partner drug concentration 10 nM, co-cultured fibroblast: WI38): 40.3 ± 5.2% | cancer cell viability (carboplatin concentration 1e+05 nM, partner drug concentration 10 nM, co-cultured fibroblast: none (monoculture)): 60.6 ± 11% | cancer cell viability (carboplatin concentration 1e+05 nM, partner drug concentration 100 nM, co-cultured fibroblast: 030F): 15.9 ± 5.7% | cancer cell viability (carboplatin concentration 1e+05 nM, partner drug concentration 100 nM, co-cultured fibroblast: WI38): 21.4 ± 11% | cancer cell viability (carboplatin concentration 1e+05 nM, partner drug concentration 100 nM, co-cultured fibroblast: none (monoculture)): 46.2 ± 17% | cancer cell viability (carboplatin concentration 1e+05 nM, partner drug concentration 1000 nM, co-cultured fibroblast: 030F): 8.74 ± 6.1% | cancer cell viability (carboplatin concentration 1e+05 nM, partner drug concentration 1000 nM, co-cultured fibroblast: WI38): 3 ± 4.3% | cancer cell viability (carboplatin concentration 1e+05 nM, partner drug concentration 1000 nM, co-cultured fibroblast: none (monoculture)): 6.42 ± 7.8%
